Here are results for five molecules from EP3170833B1, “20,23-PIPERIDINYL-5-O-MYCAMINOSYL-TYLONOLIDE POLYMORPHS” (Intervet International B.V., priority 2007, dated 2009).

SMILES strings stand for the structures.

What all share (assay type): physicochemical
A short description of data set [1]: Dynamic vapor sorption (DVS). The conditions noted are these: 25°C; for maximum water uptake: at 95% relative humidity. Here is the method:
Dynamic vapor sorption ("DVS") measurements were obtained with a Projekt Messtechnik SPS11-100n water vapor sorption analyzer. The samples were placed into aluminum crucibles on a microbalance, and allowed to equilibrate at 25°C and 50% relative humidity before initiating the following pre-defined humidity program at 25°C: 50-95-0-50% relative humidity, and scanning with a 5% change in relative humidity per hour and with iso-humid equilibration periods at extreme values.

Data set [2] in a line: Thermogravimetry (TG / TG-FTIR): thermal stability. To be noted: N2 atmosphere, heating rate of 10°C/min. How it is done: Measurements of thermogravimetry coupled to Fourier transform infrared spectroscopy ("TG-FTIR") were obtained using a Netzsch Thermo-Microbalance TG 209 with a Bruker Vector 22 FT-IR Spectrometer using an aluminum crucible (with micro-hole or open), N2 atmosphere, heating rate of 10°C/min, and temperature range of 25-250°C.
Thermogravimetry ("TG") measurements were obtained with a Perkin Elmer TGS 2 thermogravimetric analyzer using an aluminum crucible (open), N2 atmosphere, heating rate of 10°C/min, and temperature range of 25-500°C.

The nature of data set [3]: Desolvation experiment: drying under vacuum. Here is the method: A weight loss of from about 8.7-10% occurred due to tBME liberation. This weight loss corresponds to 0.8-0.9 tBME molecule per molecule of 20,23-dipiperidinyl-5-O-mycaminosyl-tylonolide, assuming essentially pure 20,23-dipiperidinyl-5-O-mycaminosyl-tylonolide. Almost all the weight loss occurs above 90°C, with a sharp step when the temperature increases to greater than 100°C. Thus, the majority of the weight loss occurs at temperatures greater than the boiling point of tBME.
Example 7. Preparation of the Form III polymorph of 20,23-dipiperidinyl-5-O-mycaminosyl-tylonolide. The Form III polymorph of 20,23-dipiperidinyl-5-O-mycaminosyl-tylonolide was prepared by drying, under vacuum at ambient temperature for 20 hours, the ethyl acetate S1 crystalline solvate of 20,23-dipiperidinyl-5-O-mycaminosyl-tylonolide (50 mg) prepared in accordance with Example 6.
Although this procedure was successfully repeated for forming S2 solvate crystals, additional batches of S2 solvate crystals were formed by dissolving an additional amount of the Form II polymorph of 20,23-dipiperidinyl-5-O-mycaminosyl-tylonolide in tert-butyl methyl ether, seeding S2 solvate crystals from the first batch, and removing the tert-butyl methyl ether. In one experiment, the S2 crystalline solvate was prepared by dissolving the Form II polymorph of 20,23-dipiperidinyl-5-O-mycaminosyl-tylonolide (245.7 mg) in tert-butyl methyl ether (0.5 ml), and slowly evaporating a portion of the solvent at ambient temperature. After no crystals formed, additional tert-butyl methyl ether was added, followed by seeding S2 solvate crystals from the first batch. The solvent was then allowed to evaporate completely. The FT-Raman spectrum for these crystals was approximately identical to the FT-Raman spectrum for the crystals from the first batch. […] The FT-Raman spectra of the crystals after each drying step coincided to the FT-Raman spectrum from the first batch.

The nature of the next data set: Solubility in tBME. The conditions noted are these: solvent tBME.

Turning to `CCC1OC(=O)CC(O)C(C)C(OC2OC(C)C(O)C(N(C)C)C2O)C(CCN2CCCCC2)CC(C)C(=O)C=CC(C)=CC1CN1CCCCC1` (stereo not drawn) [Form I polymorph, 20,23-dipiperidinyl-5-O-mycaminosyl-tylonolide], the maximum water uptake result in data set [1] is “less than 1 % (by weight)”.
For `CCC1OC(=O)CC(O)C(C)C(OC2OC(C)C(O)C(N(C)C)C2O)C(CCN2CCCCC2)CC(C)C(=O)C=CC(C)=CC1CN1CCCCC1` (stereo not drawn) [Form II polymorph, 20,23-dipiperidinyl-5-O-mycaminosyl-tylonolide], the maximum water uptake entry in data set [1] is “about 2 % (by weight)”. Besides, the “temperature at which decomposition began” value in data set [2] (TG-FTIR) was “greater than 220 °C”.
On to `CCC1OC(=O)CC(O)C(C)C(OC2OC(C)C(O)C(N(C)C)C2O)C(CCN2CCCCC2)CC(C)C(=O)C=CC(C)=CC1CN1CCCCC1` (stereo not drawn) [Form III polymorph, 20,23-dipiperidinyl-5-O-mycaminosyl-tylonolide], for which the water uptake entry in data set [1] (between 70 and 85% relative humidity) is recorded as “about 6%”. Also, in data set [2] (TG), the “temperature at which decomposition began” value is “greater than 270 °C”.
Turning to `CCC1OC(=O)CC(O)C(C)C(OC2OC(C)C(O)C(N(C)C)C2O)C(CCN2CCCCC2)CC(C)C(=O)C=CC(C)=CC1CN1CCCCC1` (stereo not drawn) [ethyl acetate S1 crystalline solvate, 20,23-dipiperidinyl-5-O-mycaminosyl-tylonolide], the “conversion by vacuum drying” value in data set [3] (vacuum drying at ambient temperature) was “readily converted into the Form III polymorph”.
For the molecule `CC[C@H]1OC(=O)C[C@@H](O)[C@H](C)[C@@H](O[C@@H]2O[C@H](C)[C@@H](O)[C@H](N(C)C)[C@H]2O)[C@@H](CCN2CCCCC2)C[C@@H](C)C(=O)/C=C/C(C)=C/[C@@H]1CN1CCCCC1` [tBME S2 crystalline solvate, 20,23-dipiperidinyl-5-O-mycaminosyl-tylonolide], in data set [3] (60°C at 1 mbar (absolute) for 1 day), the stability result is reported as “exhibits stability”. Besides, in data set [3] (at both ambient temperature and 70°C), the “loss of solvent upon drying under vacuum” value is given as “no loss of solvent was observed”. For the same molecule, the solubility (in general, the concentration that dissolves in the medium under given conditions) in the data set “Solubility in tBME” is 40 to 50 mg/mL.
